Measured values: ChEMBL document CHEMBL3227999, “Synthesis and biological properties of N2-substituted spin-labeled analogues of actinomycin D” (J Med Chem, 1979)
The source made the active and inactive calls. The rule behind the calls is not given here.

Tests used:
Calf thymus DNA [1] = assay: Binding affinity to calf thymus DNA at 1 x 10^-5 M after 30 mins by circular dichroism analysis; format: nucleic-acid assay; conditions: Bos taurus
Calf thymus DNA [2] = assay: Binding affinity to calf thymus DNA at 1 x 10^-5 M by thermal denaturation assay; format: nucleic-acid assay; conditions: Bos taurus
Calf thymus DNA [3] = assay: Binding affinity to calf thymus DNA at 1 x 10^-5 M by lectron spin resonance analysis; format: nucleic-acid assay; conditions: Bos taurus
[4] = biological target: T1, Bacterial DNA-directed RNA polymerase (Bacteria) (UniProt P0A8V2+P0A7Z4+P0A8T7+P0A800); assay: Inhibition of Escherichia coli DNA-dependent RNA polymerase at 20 ug/ml using calf thymus DNA as primer; format: protein-complex assay
T1 sequence (P0A7Z4 whole entry partner): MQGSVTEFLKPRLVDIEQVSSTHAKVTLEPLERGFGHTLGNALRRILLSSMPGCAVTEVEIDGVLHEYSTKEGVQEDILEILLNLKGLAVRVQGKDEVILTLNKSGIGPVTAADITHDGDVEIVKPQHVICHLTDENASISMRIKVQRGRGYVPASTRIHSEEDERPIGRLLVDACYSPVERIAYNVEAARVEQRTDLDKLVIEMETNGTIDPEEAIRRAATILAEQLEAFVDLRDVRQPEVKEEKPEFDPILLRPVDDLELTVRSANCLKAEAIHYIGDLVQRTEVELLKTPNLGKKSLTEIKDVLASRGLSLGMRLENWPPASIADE
T1 sequence (P0A800 2-91 partner limits assumed): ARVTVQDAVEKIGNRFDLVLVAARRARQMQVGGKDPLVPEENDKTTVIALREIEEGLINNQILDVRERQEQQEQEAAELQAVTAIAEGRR
T1 sequence (P0A8T7 whole entry partner): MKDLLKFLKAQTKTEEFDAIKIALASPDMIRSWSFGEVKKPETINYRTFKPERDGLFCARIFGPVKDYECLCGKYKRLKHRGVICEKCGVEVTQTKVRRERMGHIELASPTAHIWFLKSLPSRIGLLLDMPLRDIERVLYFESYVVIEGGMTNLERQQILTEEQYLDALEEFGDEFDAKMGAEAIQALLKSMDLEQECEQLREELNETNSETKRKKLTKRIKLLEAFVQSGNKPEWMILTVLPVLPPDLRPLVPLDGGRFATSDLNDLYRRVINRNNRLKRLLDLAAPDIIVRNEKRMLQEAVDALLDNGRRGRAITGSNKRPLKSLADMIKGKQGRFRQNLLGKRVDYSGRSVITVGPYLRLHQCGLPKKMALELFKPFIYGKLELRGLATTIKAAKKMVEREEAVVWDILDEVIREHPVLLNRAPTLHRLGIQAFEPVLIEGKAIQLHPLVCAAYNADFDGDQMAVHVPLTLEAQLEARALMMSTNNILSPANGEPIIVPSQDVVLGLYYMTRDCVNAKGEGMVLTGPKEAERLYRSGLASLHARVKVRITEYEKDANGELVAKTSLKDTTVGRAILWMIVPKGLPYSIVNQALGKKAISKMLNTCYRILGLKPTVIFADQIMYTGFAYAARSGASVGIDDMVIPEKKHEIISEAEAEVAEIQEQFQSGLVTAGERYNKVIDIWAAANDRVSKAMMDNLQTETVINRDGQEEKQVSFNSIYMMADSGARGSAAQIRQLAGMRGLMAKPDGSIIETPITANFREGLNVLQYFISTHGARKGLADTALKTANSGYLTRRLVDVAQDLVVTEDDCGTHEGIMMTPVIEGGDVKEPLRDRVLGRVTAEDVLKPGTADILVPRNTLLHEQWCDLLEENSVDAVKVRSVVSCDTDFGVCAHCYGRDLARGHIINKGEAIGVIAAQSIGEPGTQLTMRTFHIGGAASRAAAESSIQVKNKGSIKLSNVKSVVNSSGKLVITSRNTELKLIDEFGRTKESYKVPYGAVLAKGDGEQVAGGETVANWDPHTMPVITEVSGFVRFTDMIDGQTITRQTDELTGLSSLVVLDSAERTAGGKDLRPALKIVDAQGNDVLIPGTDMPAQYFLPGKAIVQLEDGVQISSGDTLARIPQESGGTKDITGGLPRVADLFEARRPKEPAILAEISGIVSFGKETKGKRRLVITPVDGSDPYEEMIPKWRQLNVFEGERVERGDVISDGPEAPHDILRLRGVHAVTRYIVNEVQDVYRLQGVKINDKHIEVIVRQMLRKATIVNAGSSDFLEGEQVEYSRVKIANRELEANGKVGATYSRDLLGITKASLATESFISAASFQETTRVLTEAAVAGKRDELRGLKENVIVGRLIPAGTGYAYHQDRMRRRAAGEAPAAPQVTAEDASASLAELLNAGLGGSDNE
T1 sequence (P0A8V2 whole entry): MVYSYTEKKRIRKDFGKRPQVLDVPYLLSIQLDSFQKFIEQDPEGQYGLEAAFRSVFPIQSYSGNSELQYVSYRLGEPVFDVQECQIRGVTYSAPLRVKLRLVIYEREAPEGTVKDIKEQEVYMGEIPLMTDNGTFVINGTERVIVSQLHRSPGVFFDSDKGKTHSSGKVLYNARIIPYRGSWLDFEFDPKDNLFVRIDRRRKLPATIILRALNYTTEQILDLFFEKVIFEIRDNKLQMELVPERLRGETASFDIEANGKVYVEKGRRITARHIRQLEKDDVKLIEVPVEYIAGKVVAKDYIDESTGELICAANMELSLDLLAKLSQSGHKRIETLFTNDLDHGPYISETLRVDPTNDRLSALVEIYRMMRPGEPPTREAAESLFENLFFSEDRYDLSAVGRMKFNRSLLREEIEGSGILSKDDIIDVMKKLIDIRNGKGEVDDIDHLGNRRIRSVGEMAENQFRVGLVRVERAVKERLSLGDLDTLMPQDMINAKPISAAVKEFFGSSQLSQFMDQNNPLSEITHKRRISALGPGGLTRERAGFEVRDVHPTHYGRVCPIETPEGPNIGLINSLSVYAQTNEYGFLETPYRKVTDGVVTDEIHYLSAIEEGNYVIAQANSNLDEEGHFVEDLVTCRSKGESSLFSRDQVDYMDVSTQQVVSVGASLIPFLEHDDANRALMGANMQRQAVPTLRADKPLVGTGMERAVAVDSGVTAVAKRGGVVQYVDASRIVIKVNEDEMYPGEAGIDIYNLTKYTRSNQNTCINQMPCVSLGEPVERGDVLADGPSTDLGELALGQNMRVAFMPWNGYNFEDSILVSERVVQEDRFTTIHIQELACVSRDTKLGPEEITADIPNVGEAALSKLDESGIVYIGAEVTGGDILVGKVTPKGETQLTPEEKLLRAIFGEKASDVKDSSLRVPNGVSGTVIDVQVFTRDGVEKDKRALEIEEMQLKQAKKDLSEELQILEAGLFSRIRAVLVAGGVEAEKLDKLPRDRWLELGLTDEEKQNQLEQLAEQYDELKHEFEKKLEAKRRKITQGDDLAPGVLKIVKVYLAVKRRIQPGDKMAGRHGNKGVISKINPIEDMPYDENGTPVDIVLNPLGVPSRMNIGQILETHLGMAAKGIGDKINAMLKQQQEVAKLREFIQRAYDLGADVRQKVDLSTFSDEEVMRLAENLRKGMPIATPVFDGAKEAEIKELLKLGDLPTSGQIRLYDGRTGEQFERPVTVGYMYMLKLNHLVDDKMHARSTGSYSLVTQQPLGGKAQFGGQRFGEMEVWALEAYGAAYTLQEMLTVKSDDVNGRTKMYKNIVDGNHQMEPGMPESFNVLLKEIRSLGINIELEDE

[5] = biological target: T1, Bacterial DNA-directed RNA polymerase (Bacteria); assay: Inhibition of Escherichia coli DNA-dependent RNA polymerase at 20 ug/ml using Micrococcus luteus DNA as primer; format: protein-complex assay
[6] = biological target: T1, Bacterial DNA-directed RNA polymerase (Bacteria); assay: Inhibition of Escherichia coli DNA-dependent RNA polymerase at 10 ug/ml using calf thymus DNA as primer; format: protein-complex assay
[7] = biological target: T1, Bacterial DNA-directed RNA polymerase (Bacteria); assay: Inhibition of Escherichia coli DNA-dependent RNA polymerase at 10 ug/ml using Micrococcus luteus DNA as primer; format: protein-complex assay
[8] = biological target: T1, Bacterial DNA-directed RNA polymerase (Bacteria); assay: Inhibition of Escherichia coli DNA-dependent RNA polymerase at 5 ug/ml using calf thymus DNA as primer; format: protein-complex assay
[9] = biological target: T1, Bacterial DNA-directed RNA polymerase (Bacteria); assay: Inhibition of Escherichia coli DNA-dependent RNA polymerase at 5 ug/ml using Micrococcus luteus DNA as primer; format: protein-complex assay
[10] = biological target: T1, Bacterial DNA-directed RNA polymerase (Bacteria); assay: Inhibition of Escherichia coli DNA-dependent RNA polymerase at 2.5 ug/ml using calf thymus DNA as primer; format: protein-complex assay
[11] = biological target: T1, Bacterial DNA-directed RNA polymerase (Bacteria); assay: Inhibition of Escherichia coli DNA-dependent RNA polymerase at 2.5 ug/ml using Micrococcus luteus DNA as primer; format: protein-complex assay
L1210 [12] = assay: Cytotoxicity against mouse L1210 cells at 10 ug/ml after 48 hrs; format: functional; conditions: L1210, 48 h
L1210 [13] = assay: Cytotoxicity against mouse L1210 cells at 5 ug/ml after 48 hrs; format: functional; conditions: L1210, 48 h
L1210 [14] = assay: Cytotoxicity against mouse L1210 cells at 1 ug/ml after 48 hrs; format: functional; conditions: L1210, 48 h
L1210 [15] = assay: Cytotoxicity against mouse L1210 cells at 0.5 ug/ml after 48 hrs; format: functional; conditions: L1210, 48 h
L1210 [16] = assay: Cytotoxicity against mouse L1210 cells at 0.1 ug/ml after 48 hrs; format: functional; conditions: L1210, 48 h
L1210 [17] = assay: Cytotoxicity against mouse L1210 cells at 0.05 ug/ml after 48 hrs; format: functional; conditions: L1210, 48 h
L1210 [18] = assay: Cytotoxicity against mouse L1210 cells at 0.01 ug/ml after 48 hrs; format: functional; conditions: L1210, 48 h
L1210 [19] = assay: Cytotoxicity against mouse L1210 cells at 0.001 ug/ml after 48 hrs; format: functional; conditions: L1210, 48 h
P388 [20] = assay: Antitumor activity against mouse P388 cells allografted in CDF1 mouse assessed as survival at 6 mg/kg, ip administered on day 1, 5 and 9; format: functional; conditions: route intraperitoneal
P388 [21] = assay: Antitumor activity against mouse P388 cells allografted in CDF1 mouse assessed as survival at 4 mg/kg, ip administered on day 1, 5 and 9; format: functional; conditions: route intraperitoneal
P388 [22] = assay: Antitumor activity against mouse P388 cells allografted in CDF1 mouse assessed as survival at 2.7 mg/kg, ip administered on day 1, 5 and 9; format: functional; conditions: route intraperitoneal
P388 [23] = assay: Antitumor activity against mouse P388 cells allografted in CDF1 mouse assessed as survival at 1.8 mg/kg, ip administered on day 1, 5 and 9; format: functional; conditions: route intraperitoneal
P388 [24] = assay: Antitumor activity against mouse P388 cells allografted in CDF1 mouse assessed as survival at 1.2 mg/kg, ip administered on day 1, 5 and 9; format: functional; conditions: route intraperitoneal
P388 [25] = assay: Antitumor activity against mouse P388 cells allografted in CDF1 mouse assessed as survival at 0.8 mg/kg, ip administered on day 1, 5 and 9; format: functional; conditions: route intraperitoneal

Structure (SMILES)	Activity (Calf thymus DNA [1])	ΔTm (Calf thymus DNA [2]) [°C]	Activity (Calf thymus DNA [3])	inhibition [4] [%]	inhibition [5] [%]	inhibition [6] [%]	inhibition [7] [%]	inhibition [8] [%]	inhibition [9] [%]	inhibition [10] [%]	inhibition [11] [%]	inhibition at 10 µg/mL (L1210 [12]) [%]	inhibition at 5 µg/mL (L1210 [13]) [%]	inhibition at 1 µg/mL (L1210 [14]) [%]	inhibition at 0.5 µg/mL (L1210 [15]) [%]	inhibition at 0.1 µg/mL (L1210 [16]) [%]	inhibition at 0.05 µg/mL (L1210 [17]) [%]	inhibition at 0.01 µg/mL (L1210 [18]) [%]	inhibition at 0.001 µg/mL (L1210 [19]) [%]	Survival (P388 [20]) [days]	also measured
Cc1c2oc3c(C)ccc(C(=O)N[C@@H]4C(=O)N[C@H](C(C)C)C(=O)N5CCC[C@H]5C(=O)N(C)CC(=O)N(C)[C@@H](C(C)C)C(=O)O[C@@H]4C)c3nc-2c(C(=O)N[C@@H]2C(=O)N[C@H](C(C)C)C(=O)N3CCC[C@H]3C(=O)N(C)CC(=O)N(C)[C@@H](C(C)C)C(=O)O[C@@H]2C)c(NCCCNC2CC(C)(C)N([O])C(C)(C)C2)c1=O	Active	3.5	Active	79	62	49	32	78	52	28	22	98	69	45	33	16	0	0	0	29	T/C (P388 [20]): 171%; Survival (P388 [21]): 18 days; T/C (P388 [21]): 171%; Survival (P388 [22]): 18 days; T/C (P388 [22]): 181%; Survival (P388 [23]): 19 days; T/C (P388 [23]): 143%; Survival (P388 [24]): 15 days; T/C (P388 [24]): 143%; Survival (P388 [25]): 15 days
Cc1c2oc3c(C)ccc(C(=O)N[C@@H]4C(=O)N[C@H](C(C)C)C(=O)N5CCC[C@H]5C(=O)N(C)CC(=O)N(C)[C@@H](C(C)C)C(=O)O[C@@H]4C)c3nc-2c(C(=O)N[C@@H]2C(=O)N[C@H](C(C)C)C(=O)N3CCC[C@H]3C(=O)N(C)CC(=O)N(C)[C@@H](C(C)C)C(=O)O[C@@H]2C)c(NC2CC(C)(C)N([O])C(C)(C)C2)c1=O	inactive	1.7	inactive	78	77	62	57	41	33	37	21	98	96	57	39	21	10	0	0	29	T/C (P388 [20]): 276%; Survival (P388 [21]): 26 days; T/C (P388 [21]): 248%; Survival (P388 [22]): 19 days; T/C (P388 [22]): 181%; Survival (P388 [23]): 20 days; T/C (P388 [23]): 190%; Survival (P388 [24]): 17 days; T/C (P388 [24]): 162%; Survival (P388 [25]): 17 days; T/C (P388 [25]): 162%
Cc1c2oc3c(C)ccc(C(=O)N[C@@H]4C(=O)N[C@H](C(C)C)C(=O)N5CCC[C@H]5C(=O)N(C)CC(=O)N(C)[C@@H](C(C)C)C(=O)O[C@@H]4C)c3nc-2c(C(=O)N[C@@H]2C(=O)N[C@H](C(C)C)C(=O)N3CCC[C@H]3C(=O)N(C)CC(=O)N(C)[C@@H](C(C)C)C(=O)O[C@@H]2C)c(NCCNC2CC(C)(C)N([O])C(C)(C)C2)c1=O	inactive	2.8	inactive	88	91	81	78	61	56	43	42	99	98	71	62	41	15	0	0	8	T/C (P388 [20]): 76%; Survival (P388 [21]): 25 days; T/C (P388 [21]): 238%; Survival (P388 [22]): 19 days; T/C (P388 [22]): 181%; Survival (P388 [23]): 17 days; T/C (P388 [23]): 162%; Survival (P388 [24]): 16 days; T/C (P388 [24]): 152%; Survival (P388 [25]): 19 days; T/C (P388 [25]): 181%
